Data taken from patent US8003665B2, “Salts and polymorphs of a potent antidiabetic compound” (Amgen Inc., priority 2003, dated 2011).

Assay: Moisture sorption/desorption (hygroscopicity)
Format: physicochemical
Protocol: Moisture sorption/desorption data were collected on a VTI SGA-100 Vapor Sorption Analyzer. Sorption and desorption data were collected over a range of 5% to 95% relative humidity (“RH”) at 10% RH intervals under nitrogen purge. Samples were not dried prior to analysis. Equilibrium criteria used for analysis were less than 0.0100% weight change in 5 minutes, with a maximum equilibration time of 3 hours if the weight criterion was not met. Data were not corrected for the initial moisture content of the samples. NaCl and PVP were used as calibration standards. This example illustrates the differential scanning calorimetry (DSC) and hygroscopicity analysis of Form I prepared according to Example 6.

O=S(=O)(Nc1cc(Cl)c(Oc2cnc3ccccc3c2)c(Cl)c1)c1ccc(Cl)cc1Cl.O=S(=O)(O)c1ccccc1 [Form I, 2,4-Dichloro-N-[3,5-dichloro-4-(quinolin-3-yloxy)-phenyl]-benzenesulfonamide benzenesulfonate salt]
weight loss (moisture desorption, from 95% to 25% relative humidity): 0.6% | weight gain (moisture sorption, from 25% to 95% relative humidity): 0.6%
